Experimental findings from US20260335453A1, “ISOINDOLINONE-GLUTARIMIDE ANTIBODY CONJUGATES, AND USES THEREOF” (FIREFLY BIO, INC., priority 2023, published 2026) are described below.

The subject of test [1] is CAL51 cells. Description: Cell proliferation (Cell Titer Glow), CAL51. It counts as cell-based. Particulars: Homo sapiens, CAL-51; IG compounds, cell killing, 72 h. As to the method:
(§1) Exemplary isoindolinone-glutarimide (IG) compounds of Table 1a, 1b and 1c were prepared and characterized according to the Examples herein. Certain exemplary IG compounds of(Table 1a were tested for their effects in inhibiting cellular proliferation, including CAL1 WSU-DLCL2, NCI-N87 and SKBR3. CAL51 is a human breast adenocarcinoma cell line with triple-negative status for expression of estrogen, progesterone and HER2 receptors. WSU-DLCL2 is a human B-Cell non-Hodgkin lymphoma cell line that expresses high levels of CD22. NCI-N87 is a human epithelial cell line established from a gastric carcinoma; SKBR3 is a human epithelial cell line established from a breast adenocarcinoma; both NCI-N87 and SKBR3 cell lines express high levels of HER2 receptor. […]
(§2) One day prior to treatment with compounds or IGAC, cells were plated in white 96-well plates (SKBR: 3000 cells/well; CAL-51: 4000 cells/well). Compounds or ADCs were added in a serial-dilution manner reaching the indicated concentrations. Plates were incubated at 37 degrees for 96h (ADCs) or 72h (compounds) whereafter a 1:10 dilution of Cell Titer Glow was used to measure relative cell numbers after 10 min of incubation at room temperature.

The test system of test [2] is SKBR3 cells. Description: Cell proliferation (Cell Titer Glow), SKBR3. It counts as cell-based. Particulars: Homo sapiens, SK-BR-3; IG compounds, cell killing, 72 h. The procedure:
as §1, §2

Test [3] has as its system CAL51 cells. Description: Degradation assay evaluated by immunofluorescence staining, CAL51. It counts as cell-based, human. Particulars: Homo sapiens, CAL-51, CAL51, 6 h. As to the method:
(§3) One day prior to treatment with compounds, black 96 well plates were coated with fibronectin (0.2 μg/ml in PBS) for 45 min at room temperature and subsequently washed with PBS. CAL-51 or SKBR3 cells were seeded at 30K cells/well (1001) and incubated overnight at 37° C. whereafter compounds were added reaching indicated concentrations. 6 h after treatment the medium was removed, cells were washed with PBS and fixed with 10% formalin for 20 mins at room temperature. Following two PBS washes (150 μl), cells were permeabilized in 0.1% Triton X-100 in PBS for 8 mins at room temperature and subsequently washed again twice with PBS. Cells were blocked thereafter with 1% BSA in PBS for 45 mins. Primary antibody was diluted in blocking buffer and incubated with the cells overnight at 4° C. After three washes with PBS, cells were incubated with secondary antibody for 1 h at RT, washed and subsequently images were taken on an Operetta High-Content Imager.
(§4) For the determination of the DC50, a custom algorithm implemented in the PerkinElmer image analysis software Harmony-Acapella® was used.

The next test has as its system WSU-DLCL2 cells. Kind of test: Cell proliferation (Cell Titer Glow), WSU-DLCL2. The format is cell-based. Particulars: Homo sapiens, WSUDLCL2; IG compounds, cell killing, 72 h. The procedure:
Exemplary isoindolinone-glutarimide (IG) compounds of Table 1a, 1b and 1c were prepared and characterized according to the Examples herein. Certain exemplary IG compounds of(Table 1a were tested for their effects in inhibiting cellular proliferation, including CAL1 WSU-DLCL2, NCI-N87 and SKBR3. CAL51 is a human breast adenocarcinoma cell line with triple-negative status for expression of estrogen, progesterone and HER2 receptors. WSU-DLCL2 is a human B-Cell non-Hodgkin lymphoma cell line that expresses high levels of CD22. NCI-N87 is a human epithelial cell line established from a gastric carcinoma; SKBR3 is a human epithelial cell line established from a breast adenocarcinoma; both NCI-N87 and SKBR3 cell lines express high levels of HER2 receptor.
Exemplary embodiments of the isoindolinone-glutarimide antibody conjugates (IGAC) of Formula I are compiled in Table 3. Assessment of IGAC biological activity and other properties may be conducted according to the methods of Example 102. In some instances, the Cell proliferation dose response IC50 value is an average of repetitive assays. Certain exemplary IGAC were tested for their effects in inhibiting cellular proliferation, including CAL51; WSU-DLCL2, NCI-N87 and SKBR3 cell lines. CAL51 is a human breast adenocarcinoma cell line with triple-negative status for expression of estrogen, progesterone and HER2 receptors. WSU-DLCL2 is a human B-Cell non-Hodgkin lymphoma cell line that expresses high levels of CD22. NCI-N87 is a human epithelial cell line established from a gastric carcinoma; SKBR3 is a human epithelial cell line established from a breast adenocarcinoma; both NCI-N87 and SKBR3 cell lines express high levels of HER2 receptor.
On the day of treatment, 10,000 suspension cells/well were plated in white 96-well plates. Compounds or ADCs were added in a serial-dilution manner reaching the indicated concentrations. Plates were incubated at 37 degrees for 72 h whereafter a 1:10 dilution of Cell Titer Glow was used to measure relative cell numbers after 10 min of incubation at room temperature.

Test [4] deals with SKBR3 cells. Kind of test: Degradation assay evaluated by immunofluorescence staining, SKBR3. It counts as cell-based. To be noted: Homo sapiens, SK-BR-3, SKBR3, 6 h. The procedure: as §3, §4

Bounds are passed on as bounds.

For the compound `CNCCOCCc1ccc(NC(=O)CCc2ccc3c(c2)CN(C2CCC(=O)NC2=O)C3=O)cc1Cl` (stereo not drawn) [IG-2, N-(3-chloro-4-(2-(2-(methylamino)ethoxy)ethyl)phenyl)-3-(2-(2,6-dioxopiperidin-3-yl)-1-oxoisoindolin-5-yl)propenamide], the IC50 in the test with CAL51 cells [1], in the test on SKBR3 cells [2] and in the test with WSU-DLCL2 cells was above 10000 nM throughout. In the test with CAL51 cells [3], the Dmax is below 5%.

Take `CNCCOCCc1ccc(NC(=O)NCc2ccc3c(c2)CN(C2CCC(=O)NC2=O)C3=O)cc1Cl` (stereo not drawn) [IG-3, 1-(3-chloro-4-(2-(2-(methylamino)ethoxy)ethyl)phenyl)-3-((2-(2,6-dioxopiperidin-3-yl)-1-oxoisoindolin-5-yl)methyl)urea]: the 50% degradation concentration (DC50) with SKBR3 cells [4] was 185 nM; in the test on CAL51 cells [3], 345 ± 135 nM. For the same compound, the Dmax with SKBR3 cells [4] amounted to 78.2%; in the test with CAL51 cells [3] it was 79.4 ± 3.63%. Moreover, the IC50 turned out to be 3010 nM in the test on CAL51 cells [1], 77.5 nM in the test with SKBR3 cells [2] and 66.4 nM with WSU-DLCL2 cells.

As to `Cc1ccc(NC(=O)NCc2ccc3c(c2)CN(C2CCC(=O)NC2=O)C3=O)cc1O` (stereo not drawn) [IG-12, 1-((2-(2,6-dioxopiperidin-3-yl)-1-oxoisoindolin-5-yl)methyl)-3-(3-hydroxy-4-methylphenyl)urea], the DC50 in the test on SKBR3 cells [4] stood at 52.2 nM; in the test on CAL51 cells [3], 118 ± 35 nM. The values for the Dmax with SKBR3 cells [4] and in the test on CAL51 cells [3] were 98.3% and 96.8 ± 4.12%, respectively. In the test with CAL51 cells [1], this compound displayed an IC50 of 1250 nM.

In the case of `Cc1ccc(NC(=O)NCc2ccc3c(c2O)CN(C2CCC(=O)NC2=O)C3=O)cc1Cl` (stereo not drawn) [IG-15, 1-(3-chloro-4-methylphenyl)-3-((2-(2,6-dioxopiperidin-3-yl)-4-hydroxy-1-oxoisoindolin-5-yl)methyl)urea], the DC50 with SKBR3 cells [4] is below 2.26 nM; in the test on CAL51 cells [3], 35.8 ± 20.4 nM. In addition, the Dmax with SKBR3 cells [4] worked out at 91.1 ± 3.35%; with CAL51 cells [3], 79.2 ± 9.1%. In addition, the IC50 with CAL51 cells [1] was found to be 54.9 nM; in the test on SKBR3 cells [2] it was 5.19 nM; in the test on WSU-DLCL2 cells it was 4.25 nM.

In the test with CAL51 cells [1], `CC(C)(C)c1ccc(NC(=O)NCc2ccc3c(c2O)CN(C2CCC(=O)NC2=O)C3=O)cc1` (stereo not drawn) [IG-26, 1-(4-(tert-butyl)phenyl)-3-((2-(2,6-dioxopiperidin-3-yl)-4-hydroxy-1-oxoisoindolin-5-y1)methyl)urea] displayed a half-maximal inhibitory concentration (IC50) above 10000 nM. The compound also yielded a Dmax in the test with CAL51 cells [3] of 22.1%.

Regarding `CC(C)(C)c1ccccc1NC(=O)NCc1ccc2c(c1O)CN(C1CCC(=O)NC1=O)C2=O` (stereo not drawn) [IG-28, 1-(2-(tert-butyl)phenyl)-3-((2-(2,6-dioxopiperidin-3-yl)-4-hydroxy-1-oxoisoindolin-5-yl)methyl)urea], in the test with SKBR3 cells [4], it took 5.2 nM to reach half-maximal degradation (DC50) and the Dmax is 90.2%. Also, the IC50 with CAL51 cells [1] turned out to be 22.5 nM. In the test on CAL51 cells [3], it took 46.9 nM to reach half-maximal degradation (DC50) and the Dmax was determined as 94.2%.

Compound `CNc1c(CNC(=O)Nc2ccc(C)c(Cl)c2)ccc2c1CN(C1CCC(=O)NC1=O)C2=O` (stereo not drawn) [IG-31, 1-(3-chloro-4-methylphenyl)-3-((2-(2,6-dioxopiperidin-3-yl)-4-(methylamino)-1-oxoisoindolin-5-yl)methyl)urea] displayed an IC50 in the test with CAL51 cells [1] above 10000 nM. Besides, the Dmax with CAL51 cells [3] is 18.6%.

In the case of `Cc1ccc(NC(=O)NCc2cc3c(cc2O)C(=O)N(C2CCC(=O)NC2=O)C3)cc1Cl` (stereo not drawn) [IG-36, 1-(3-chloro-4-methylphenyl)-3-((2-(2,6-dioxopiperidin-3-yl)-6-hydroxy-1-oxoisoindolin-5-yl)methyl)urea], the results for the DC50 in the test with SKBR3 cells [4] and in the test with CAL51 cells [3] were 4.62 nM and 660 ± 997 nM, respectively. Moreover, the Dmax in the test with SKBR3 cells [4] worked out at 91.8%; with CAL51 cells [3], 78.5 ± 8.18%. Further, the IC50 was 120 nM in the test on CAL51 cells [1], 3.5 nM in the test with SKBR3 cells [2] and 4.95 nM in the test with WSU-DLCL2 cells.

`Cc1ccc(C(=O)C(=O)NCc2ccc3c(c2O)CN(C2CCC(=O)NC2=O)C3=O)cc1Cl` (stereo not drawn) [IG-37, 2-(3-chloro-4-methylphenyl)-N-((2-(2,6-dioxopiperidin-3-yl)-4-hydroxy-1-oxoisoindolin-5-y1)methyl)-2-oxoacetamide]: the figures for the DC50 in the test with SKBR3 cells [4] and in the test on CAL51 cells [3] were 7.88 nM and 139 nM, respectively. Also, the Dmax worked out at 95.2% in the test with SKBR3 cells [4] and 70.9% in the test with CAL51 cells [3]. Further, the IC50 in the test on CAL51 cells [1] stood at 72.5 nM; in the test with SKBR3 cells [2] it was 4.2 nM; in the test on WSU-DLCL2 cells it was 9.6 nM.

In the test with SKBR3 cells [4], `O=C1CCC(N2Cc3c(ccc(CNC(=O)Nc4cccc5ccccc45)c3O)C2=O)C(=O)N1` (stereo not drawn) [IG-38, 1-((2-(2,6-dioxopiperidin-3-yl)-4-hydroxy-1-oxoisoindolin-5-yl)methyl)-3-(naphthalen-1-yl)urea] gave a DC50 of 10.6 nM and a Dmax of 94.1%. The compound further registered an IC50 with CAL51 cells [1] of 35.9 nM. In the test on CAL51 cells [3], this compound showed a DC50 of 113 nM and a Dmax of 93.7%.

With `O=C1CCC(N2Cc3c(ccc(CNC(=O)Nc4ccc5ccccc5c4)c3O)C2=O)C(=O)N1` (stereo not drawn) [IG-39, 1-((2-(2,6-dioxopiperidin-3-yl)-4-hydroxy-1-oxoisoindolin-5-yl)methyl)-3-(naphthalen-2-yl)urea], in the test with SKBR3 cells [4], the DC50 worked out at 42.7 nM and the Dmax came out at 77.4%. The compound also came in with an IC50 in the test on SKBR3 cells [2] of 14.1 nM. In the test on CAL51 cells [3], this compound registered a DC50 of 81.4 nM and a Dmax of 69.4%.

As to `O=C1CCC(N2Cc3c(ccc(CNC(=O)Nc4ccc(Br)c(Cl)c4)c3O)C2=O)C(=O)N1` (stereo not drawn) [IG-40, 1-(4-bromo-3-chlorophenyl)-3-((2-(2,6-dioxopiperidin-3-yl)-4-hydroxy-1-oxoisoindolin-5-yl)methyl)urea], in the test with SKBR3 cells [2], the IC50 came to 21.3 nM.

Regarding `O=C1CCC(N2Cc3c(ccc(CNC(=O)Nc4ccc(I)c(Cl)c4)c3O)C2=O)C(=O)N1` (stereo not drawn) [IG-41, 1-(3-chloro-4-iodophenyl)-3-((2-(2,6-dioxopiperidin-3-yl)-4-hydroxy-1-oxoisoindolin-5-yl)methyl)urea], the IC50 in the test with CAL51 cells [1] was 25 nM; with SKBR3 cells [2] it was 17.1 nM.

Turning to `CC(C)(C)c1ccc(NC(=O)NCc2ccc3nnn(C4CCC(=O)NC4=O)c(=O)c3c2)c(O)c1` (stereo not drawn) [IG-49, 1-(4-(tert-butyl)-2-hydroxyphenyl)-3-((3-(2,6-dioxopiperidin-3-yl)-4-oxo-3,4-dihydrobenzo[d][1,2,3]triazin-6-yl)methyl)urea], in the test on SKBR3 cells [2], 41.7 nM corresponded to half-maximal inhibition (IC50).

On to `CC(C)c1cc(NC(=O)NCc2ccc3c(c2O)CN(C2CCC(=O)NC2=O)C3=O)ccc1C(F)(F)F` (stereo not drawn) [IG-51, 1-((2-(2,6-dioxopiperidin-3-yl)-4-hydroxy-1-oxoisoindolin-5-yl)methyl)-3-(3-isopropyl-4-(trifluoromethyl)phenyl)urea], for which the IC50 stood at 15.7 nM in the test with SKBR3 cells [2] and 10.2 nM in the test with WSU-DLCL2 cells.

For `O=C1CCC(N2Cc3c(ccc(CNC(=O)C(F)(F)c4ccc(Cl)cc4)c3O)C2=O)C(=O)N1` (stereo not drawn) [IG-52, 2-(4-chlorophenyl)-N-((2-(2,6-dioxopiperidin-3-yl)-4-hydroxy-1-oxoisoindolin-5-yl)methyl)-2,2-difluoroacetamide], the IC50 in the test with SKBR3 cells [2] was 443 nM; with WSU-DLCL2 cells, above 2000 nM.

On to `Cc1c(Cl)cc(NC(=O)NCc2ccc3c(c2)CN(C2CCC(=O)NC2=O)C3=O)cc1N1CCOC1=O` (stereo not drawn) [IG-54, 1-(3-chloro-4-methyl-5-(2-oxooxazolidin-3-yl)phenyl)-3-((2-(2,6-dioxopiperidin-3-yl)-1-oxoisoindolin-5-yl)methyl)urea], for which the IC50 with SKBR3 cells [2] turned out to be 14.5 nM; in the test with WSU-DLCL2 cells, 6.9 nM.
